Tests used:
[1] = test system: PLP and MBP RNA expression; assay: Myelin gene expression (PLP, MBP RNA) in Oli-neu oligodendrocytes, quantitative RT-PCR; type: cell-based, mouse; details: 24 hours
Method: (§1) Oli-neu oligodendrocytes are derived from mouse primary oligodendrocyte cultures retrovirally transduced to constitutively express the t-neu oncogene (Jung et al., Eur J Neurosci 7:1245-1265, 1995). All morphology, signaling, and myelin gene expression studies using Oli-neu oligodendrocytes were performed in media containing DMEM, 1% N2, 2 mM Glutamax, 1 mM sodium pyruvate, 20 mM HEPES buffer, and 50 μM β-mercaptoethanol (Sigma Aldrich. To evaluate PAR and Klk6 gene expression in Oli-neu (Table 2), cells were differentiated by treatment with 1 mM N^6, 2′-O-dibutyryladenosine 3′, 5′-cyclic monophosphate disodium salt (dbcAMP) for 72 hours prior to harvesting for RNA isolation. All cells were maintained at 37° C. in 95% air and 5% CO2. Cell culture reagents were obtained from Life Technologies (Carlsbad, CA) unless otherwise indicated. All cell culture experiments were performed in triplicate and repeated at least twice.
Expression of oligodendrocyte PARs and Klk6-real-time quantitative PCR: Total RNA was isolated from cultured cells using RNA STAT-60 (Tel-Test, Friendswood, TX). Klk6, PAR1, or PAR2 RNA expression was determined in 0.5 μg of RNA with the iScript one-step RT-PCR kit with SYBR® Green and the iCycler iQ5 system (BioRad, Hercules, CA). Transcript copy number was determined using a standard curve prepared by parallel amplification of cDNA clones diluted to known copy number (Christophi et al., J Neurochem 91:1439-1449, 2004). Amplification of the housekeeping gene glyceraldehyde phosphate 3-dehydrogenase (GAPDH) was used to control for loading. The mean and standard error (SEM) of transcript copy number was determined and data expressed as RNA copy number on a logarithmic scale.
Regulation of oligodendrocyte myelin gene expression by PAR1 agonists: Primary murine oligodendrocytes (3 DIV) or Oli-neu oligodendrocytes were seeded at 3.5×10^5 cells/well in six-well tissue culture plates. Cells were then treated with Klk6 (30-300 nM), Klk1 (300 nM), thrombin (270 nM), or PAR1-AP (100 μM) for 24 hours prior to RNA isolation. Expression of myelin-associated genes, PLP, and MBP was examined by real-time quantitative RT-PCR. Expression levels of target genes were normalized to GAPDH and expressed as percent control.

Oli-neu oligodendrocytes = assay: Process retraction in Oli-neu oligodendrocytes (Phalloidin+ processes per cell); type: cell-based, mouse; details: 24 hours, PAR1-AP 100 μM, Klk1 300 nM
Method: as §1
(§2) PAR agonist-induced changes in oligodendrocyte morphology: To determine the effects of recombinant Klk6, Klk1, thrombin, or PAR1-AP on oligodendroglia, 3 DIV PAR1^+/+, PAR1^−/−, and PAR2^−/− oligodendrocytes, PAR1^+/+ OPCs immediately post purification, or Oli-neu cells were grown on cover slips in the presence of agonists for 24 h. For ATP toxicity assays, oligodendrocytes were incubated with ATP (50 μM, Sigma Aldrich) in the presence of Klk6 or Klk1. Following each treatment, oligodendrocyte and OPC cultures were immunolabeled for O4 to visualize the cell body and processes. Oli-neu processes were visualized by staining the actin cytoskeleton with Cy3-conjugated Phalloidin.
(§3) To assess the effects of Klk6 and other PAR1 agonists on oligodendrocyte morphology and process stability, 20× digital micrographs were overlaid with a 780 μm^2 grid and ImageJ software 1.45r (National Institutes of Health) used to record cell number and the number of processes crossing horizontal grid lines (Scarisbrick et al., Brain 125:1283-1296, 2002). Data are expressed as the mean number of O4^+ or Phalloidin^+ processes per DAPI^+ cell (±SEM).

[2] = test system: rat primary oligodendrocytes; details: 30 or 300 nM, 24 hours; cited from earlier work
[3] = test system: primary oligodendrocyte cultures (3 DIV); assay: Oligodendrocyte morphological differentiation scoring (simple, incomplete, complete, membrane), process and cell number; type: cell-based, mouse; details: 24 hours
Method: Oligodendrocyte Cultures: Purified cortical oligodendrocyte progenitor cells (OPCs) and differentiated oligodendrocytes were isolated from mixed glial cultures derived from postnatal day 1 mice (McCarthy and de Vellis, J Cell Blot 85:890-902, 1980). Glial cultures were grown in media containing DMEM, 2 mM Glutamax, 1 mM sodium pyruvate, 20 mM HEPES, and 10% heat-inactivated fetal calf serum (Atlanta Biologicals, Lawrenceville, GA). OPCs were isolated from 10 days-in-vitro (DIV) mixed glial cultures by overnight shaking and purified by differential adhesion. OPCs were seeded in defined Neurobasal A media containing 1% N2, 50 U/mL penicillin/streptomycin, 2 mM Glutamax, 1 mM sodium pyruvate, 0.45% glucose, and 50 μM β-mercaptoethanol (Sigma Aldrich, USA). OPCs were seeded at 3×10^4/cm^2 onto tissue culture plastic or 12 mm glass cover slips coated with poly-L-lysine (PLL, 10 μg/mL). After 24 h, cultures were 92-98% immunoreactive (IR) for sulfatide (O4) and by 72 hours at least 80% were also MBP-IR.
as §2, §3
The extent of oligodendrocyte morphological differentiation was determined by scoring O4^+/DAPI^+ oligodendrocyte morphology as simple (only primary processes, no secondary branching), incomplete (one or more primary process without secondary branching), complete (all primary processes with secondary branching), or membrane (complete secondary branching with membrane sheets) (Huang et al., Nat Neurosci 14:45-53, 2011). The mean number of cells in each morphology class was determined across treatments and expressed as percent of total O4^+/DAPI^+ cells.
Changes in OPC or oligodendrocyte morphology were quantified from five microscopic fields per cover slip with the mean and SEM calculated across three cover slips per experiment. Each experiment was repeated at least twice using independent cultures. Analysis of oligodendrocyte morphology was performed without knowledge of treatment groups.

With “Klk6: Recombinant murine kallikrein-related peptidase 6 expressed using a baculovirus system” the “MBP RNA” value [1] was “no significant suppression”, the “PLP RNA at 30, 150 and 300 nM” value [1] was “significant and equivalent PLP RNA down regulation” and the PLP expression ([1]; Klk6 300 nM, thrombin 270 nM, PAR1-AP 100 μM, Klk1 300 nM) was “significantly diminished”. The Oli-neu cell number (Oli-neu oligodendrocytes; Klk6 30 nM) was “small but significant increase”, the “number of processes per cell” value (Oli-neu oligodendrocytes; Klk6 30, 150, 300 nM, thrombin 270 nM) was “significant and dose-dependent” and the “process retraction and oligodendrocyte degeneration” value [2] was “significant process retraction without oligodendrocyte degeneration”. The “number of incomplete oligodendrocyte morphologies” value ([3]; 150 nM) was “greater than four-fold increase”, the “number of simple oligodendrocyte morphologies” value ([3]; 150 nM) was “two-fold increase” and the “oligodendrocytes with complete morphology” value ([3]; 150 nM) was “nearly eleven-fold decrease”. The “oligodendroglia with membrane morphology” value ([3]; 150 nM) was “elimination”, the oligodendrocyte number ([3]; Klk6 150 nM, Klk1 300 nM) was “no significant effect” and the processes per cell ([3]; Klk6 150 nM, Klk1 300 nM) was “two-fold fewer”.
